This data set has as its system ERG 1-2 molecule. Description: Cell differentiation marker ERG 1-2 in HaCat keratinocytes, immunofluorescence. The following applies: HaCat human keratinocytes, 24 hours. The data set is classed as cell-based.

The values that follow come from patent US7674451B2, “Cosmetic or pharmaceutical composition comprising peptides, uses and treatment processes” (ISP Investments Inc., priority 2002, dated 2010).

Where a SMILES comes first, the peptide text is derived from it.

Turning to `N=C(N)NCCC[C@H](N)C(=O)NCC(=O)N[C@@H](CO)C(=O)O` [Arg-Gly-Ser] (H-Arg-Gly-Ser-OH), the “quantity of ERG molecules present in the cells (intensity of fluorescence)” value is given as “increases”.
